What follows are molecules tested against T1, cardiac myofibrils (myosin ATPase) (assay: Cardiac Myofibril ATPase Assay (counter screen)). Settings: myofibrils 1.0 mg/mL, KCl omitted, Table 5A.
T1 construct: frozen myofibril pellets obtained from cardiac tissue; from tissue
T1 sequence (P12883 whole entry): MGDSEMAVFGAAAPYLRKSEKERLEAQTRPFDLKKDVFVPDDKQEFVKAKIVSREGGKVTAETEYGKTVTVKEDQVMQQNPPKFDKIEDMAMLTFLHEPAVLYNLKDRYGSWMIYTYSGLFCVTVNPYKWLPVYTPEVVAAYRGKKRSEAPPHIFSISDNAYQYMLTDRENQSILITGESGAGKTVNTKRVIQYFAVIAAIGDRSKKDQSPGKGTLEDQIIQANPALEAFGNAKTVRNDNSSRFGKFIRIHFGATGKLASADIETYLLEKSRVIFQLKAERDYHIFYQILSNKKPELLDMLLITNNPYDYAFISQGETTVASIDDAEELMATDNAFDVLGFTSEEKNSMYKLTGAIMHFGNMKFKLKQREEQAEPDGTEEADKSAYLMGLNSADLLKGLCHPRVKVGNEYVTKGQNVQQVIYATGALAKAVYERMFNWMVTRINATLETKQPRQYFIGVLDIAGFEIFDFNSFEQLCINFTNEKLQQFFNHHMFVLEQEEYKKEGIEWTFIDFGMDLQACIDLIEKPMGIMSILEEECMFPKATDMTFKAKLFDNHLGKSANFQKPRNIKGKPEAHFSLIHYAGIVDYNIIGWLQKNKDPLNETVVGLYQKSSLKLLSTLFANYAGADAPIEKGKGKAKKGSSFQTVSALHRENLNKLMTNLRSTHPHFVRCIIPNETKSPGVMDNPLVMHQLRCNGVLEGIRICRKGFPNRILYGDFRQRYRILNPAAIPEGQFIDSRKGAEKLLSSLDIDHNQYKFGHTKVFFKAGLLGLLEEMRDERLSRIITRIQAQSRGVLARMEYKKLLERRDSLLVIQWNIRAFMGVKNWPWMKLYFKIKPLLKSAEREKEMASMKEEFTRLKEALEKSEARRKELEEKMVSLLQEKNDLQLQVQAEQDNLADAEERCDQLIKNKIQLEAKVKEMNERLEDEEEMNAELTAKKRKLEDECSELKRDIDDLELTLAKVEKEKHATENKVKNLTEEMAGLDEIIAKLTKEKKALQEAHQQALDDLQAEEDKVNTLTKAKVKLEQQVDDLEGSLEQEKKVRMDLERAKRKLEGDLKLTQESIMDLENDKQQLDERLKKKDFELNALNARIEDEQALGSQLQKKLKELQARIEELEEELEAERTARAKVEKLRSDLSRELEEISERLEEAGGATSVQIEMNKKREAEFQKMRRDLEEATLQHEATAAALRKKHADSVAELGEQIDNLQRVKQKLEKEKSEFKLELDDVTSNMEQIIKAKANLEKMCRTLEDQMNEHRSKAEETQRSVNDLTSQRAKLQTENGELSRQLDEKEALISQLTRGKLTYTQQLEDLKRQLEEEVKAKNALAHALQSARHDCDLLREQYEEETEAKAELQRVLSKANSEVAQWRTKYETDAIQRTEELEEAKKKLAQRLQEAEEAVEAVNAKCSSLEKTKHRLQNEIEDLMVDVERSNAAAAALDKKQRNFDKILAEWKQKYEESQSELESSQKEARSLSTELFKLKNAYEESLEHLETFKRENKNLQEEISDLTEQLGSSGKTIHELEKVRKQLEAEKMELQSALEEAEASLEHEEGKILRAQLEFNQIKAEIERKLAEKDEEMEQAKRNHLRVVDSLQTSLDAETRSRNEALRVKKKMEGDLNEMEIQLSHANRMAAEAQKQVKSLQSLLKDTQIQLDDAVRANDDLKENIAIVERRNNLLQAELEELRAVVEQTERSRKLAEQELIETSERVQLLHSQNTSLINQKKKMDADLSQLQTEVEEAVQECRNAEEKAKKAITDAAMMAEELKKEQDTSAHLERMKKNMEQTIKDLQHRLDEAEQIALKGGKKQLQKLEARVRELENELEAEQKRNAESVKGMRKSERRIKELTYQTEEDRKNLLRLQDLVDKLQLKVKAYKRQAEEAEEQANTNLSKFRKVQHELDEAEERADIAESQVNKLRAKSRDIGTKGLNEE
T1 sequence (P08590 whole entry partner): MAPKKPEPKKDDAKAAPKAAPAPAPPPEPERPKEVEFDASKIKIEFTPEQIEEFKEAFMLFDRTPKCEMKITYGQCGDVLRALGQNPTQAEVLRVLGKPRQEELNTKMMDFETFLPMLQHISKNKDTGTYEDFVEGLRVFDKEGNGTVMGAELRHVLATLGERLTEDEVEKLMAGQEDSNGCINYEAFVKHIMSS
T1 sequence (P10916 whole entry partner): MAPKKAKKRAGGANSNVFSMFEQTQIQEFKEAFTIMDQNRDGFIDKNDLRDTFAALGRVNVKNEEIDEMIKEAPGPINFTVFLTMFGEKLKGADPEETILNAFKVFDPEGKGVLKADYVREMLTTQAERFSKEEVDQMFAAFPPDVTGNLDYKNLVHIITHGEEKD
Type: biochemical
Description: Overview: Myosin ATPase activity is assessed by using a coupled reaction system, in which ADP generated by the myosin ATPase function is coupled to the disappearance of NADH through the pyruvate kinase/lactate dehydrogenase (PK-LDH) system. ATPase activity produces ADP, which is used as a substrate for PK to produce pyruvate and regenerate ATP. The pyruvate is then used as a substrate by LDH to oxidize NADH to NAD+. The rate of the reaction is monitored through the time-dependent disappearance of NADH using absorbance at 340 nm. Inhibition of ATPase activity by the assayed compounds is indicated by a reduced rate of NADH loss, relative to vehicle-treated controls, over the experimental time window. To assess the selectivity of the assayed compounds for skeletal myofibrils, the compounds are counter-screened in cardiac myofibrils.
Example 13: Cardiac Myofibril ATPase Assay
Following example 11, the counter screen was done using frozen myofibril pellets obtained from cardiac tissue. The assay was done in the same manner as above, with the following notable exceptions: the final well concentration of myofibrils was 1.0 mg/mL and KCl was omitted from the recipe.
Compounds of Table 1 to 3 were tested, and results of the assays appear in Tables 5a-5c herein. A=IC50 is less than or equal to 10 μM; B=IC50 is greater than 10 μM and less than 100 μM; C=IC50 is greater than 100 μM; and […].
For `O=C(Cn1nc(-c2ccc(OC(F)(F)F)nc2)ccc1=O)NCc1ccccc1Cl` [Compound I-3, N-(2-chlorobenzyl)-2-(6-oxo-3-(6-(trifluoromethoxy)pyridin-3-yl)pyridazin-1(6H)-yl)acetamide], the IC50 was greater than 100 µM. `CC[C@H](C)NC(=O)Cn1nc(-c2ccc(OC(F)F)nc2)ccc1=O` [Compound I-9, (S)-N-(sec-butyl)-2-(3-(6-(difluoromethoxy)pyridin-3-yl)-6-oxopyridazin-1(6H)-yl)acetamide] gave an IC50 greater than 100 µM. `CCNC(=O)Cn1nc(-c2cnc(OC(F)F)cc2F)ccc1=O` [Compound I-80, 2-(3-(6-(difluoromethoxy)-4-fluoropyridin-3-yl)-6-oxopyridazin-1(6H)-yl)-N-ethylacetamide] was tested, and the IC50 was greater than 100 µM. In the case of `CCNC(=O)Cn1nc(-c2ccc(N3C[C@@H]4COCC3CO4)nc2)ccc1=O` [Compound I-81, 2-(3-(6-((5R)-3,6-dioxa-8-azabicyclo[3.2.2]nonan-8-yl)pyridin-3-yl)-6-oxopyridazin-1(6H)-yl)-N-ethylacetamide], the IC50 is reported as greater than 100 µM.

Same assay, conditions: myofibrils 1.0 mg/mL, KCl omitted, Table 5C
`CCNC(=O)Cn1nc(-c2ccc(OCC3(F)COC3)cc2)ccc1=O` [IIIa-27, N-ethyl-2-(3-(4-((3-fluorooxetan-3-yl)methoxy)phenyl)-6-oxopyridazin-yl)acetamide] showed an IC50 greater than 100 µM. With `COc1ccc(-c2ccc(=O)n(CC(=O)NCC(C)C)n2)c(F)c1` [IIIb-42, 2-(3-(2-fluoro-4-methoxyphenyl)-6-oxopyridazin-1(6H)-yl)-N-isobutylacetamide] the IC50 was greater than 100 µM. `CCOc1ccc(-c2ccc(=O)n(CC(=O)N3CCCc4ccccc43)n2)cc1` [IIIc-8, 2-(2-(3,4-dihydroquinolin-1(2H)-yl)-2-oxoethyl)-6-(4-ethoxyphenyl)pyridazin-3(2H)-one] showed an IC50 greater than 100 µM. For `COc1ccc(-c2ccc(=O)n(CC(=O)N3CCCC3)n2)cc1OC` [IIIc-9, 6-(3,4-dimethoxyphenyl)-2-(2-oxo-2-(pyrrolidin-1-yl)ethyl)pyridazin-3(2H)-one], the IC50 was greater than 100 µM. With `COc1ccc(-c2ccc(=O)n(CC(=O)N3CCCC3)n2)cc1` [IIIc-10, 6-(4-methoxyphenyl)-2-(2-oxo-2-(pyrrolidin-1-yl)ethyl)pyridazin-3(2H)-one] the IC50 was greater than 100 µM. `COc1ccc(-c2ccc(=O)n(CC(=O)N3CCC(C(N)=O)CC3)n2)cc1` [IIIc-11, 1-(2-(3-(4-methoxyphenyl)-6-oxopyridazin-1(6H)-yl)acetyl)piperidine-4-carboxamide] was tested, and the IC50 was greater than 100 µM. With `O=C(Cn1nc(-c2ccc(Cl)cc2)ccc1=O)NCc1ccccc1Cl` [IIIc-14, N-(2-chlorobenzyl)-2-(3-(4-chlorophenyl)-6-oxopyridazin-1(6H)-yl)acetamide] the IC50 was greater than 100 µM. Work on `CC(C)NC(=O)Cn1nc(-c2ccc(Cl)cc2)ccc1=O` [IIIc-15, 2-(3-(4-chlorophenyl)-6-oxopyridazin-1(6H)-yl)-N-isopropylacetamide] yielded an IC50 greater than 100 µM. Molecule `O=C(Cn1nc(-c2ccc(Cl)cc2)ccc1=O)Nc1ccc2cc[nH]c2c1` [IIIc-21, 2-(3-(4-chlorophenyl)-6-oxopyridazin-1(6H)-yl)-N-(1H-indol-6-yl)acetamide] has an IC50 greater than 100 µM. With `Cc1cccnc1NC(=O)Cn1nc(-c2ccc(Cl)cc2)ccc1=O` [IIIc-24, 2-(3-(4-chlorophenyl)-6-oxopyridazin-1(6H)-yl)-N-(3-methylpyridin-2-yl)acetamide] the IC50 was greater than 100 µM. `COc1ccc(NC(=O)Cn2nc(-c3ccc(Cl)cc3)ccc2=O)c(OC)c1` [IIIc-25, 2-(3-(4-chlorophenyl)-6-oxopyridazin-1(6H)-yl)-N-(2,4-dimethoxyphenyl)acetamide] showed an IC50 greater than 100 µM. With `COc1ccc(Cl)cc1NC(=O)Cn1nc(-c2ccc(Cl)cc2)ccc1=O` [IIIc-26, N-(5-chloro-2-methoxyphenyl)-2-(3-(4-chlorophenyl)-6-oxopyridazin-1(6H)-yl)acetamide] the IC50 was greater than 100 µM. In the case of `COc1ccc(OC)c(NC(=O)Cn2nc(-c3ccc(Cl)cc3)ccc2=O)c1` [IIIc-29, 2-(3-(4-chlorophenyl)-6-oxopyridazin-1(6H)-yl)-N-(2,5-dimethoxyphenyl)acetamide], the IC50 is reported as greater than 100 µM. With `O=C(Cn1nc(-c2ccc(Cl)cc2)ccc1=O)NCc1cccc(Cl)c1` [IIIc-34, N-(3-chlorobenzyl)-2-(3-(4-chlorophenyl)-6-oxopyridazin-1(6H)-yl)acetamide] the IC50 was greater than 100 µM. Work on `O=C(Cn1nc(-c2ccc(Cl)cc2)ccc1=O)NC1CC1` [IIIc-36, 2-(3-(4-chlorophenyl)-6-oxopyridazin-1(6H)-yl)-N-cyclopropylacetamide] yielded an IC50 greater than 100 µM. Molecule `O=C(Cn1nc(-c2ccc(Cl)cc2)ccc1=O)NC1CCCC1` [IIIc-37, 2-(3-(4-chlorophenyl)-6-oxopyridazin-1(6H)-yl)-N-cyclopentylacetamide] has an IC50 greater than 100 µM. `O=C(Cn1nc(-c2ccc(Cl)cc2)ccc1=O)NC1CCCCC1` [IIIc-39, 2-(3-(4-chlorophenyl)-6-oxopyridazin-1(6H)-yl)-N-cyclohexylacetamide] was tested, and the IC50 was greater than 100 µM. With `O=C(Cn1nc(-c2ccc(Br)cc2)ccc1=O)NC1CCCC1` [IIIc-41, 2-(3-(4-bromophenyl)-6-oxopyridazin-1(6H)-yl)-N-cyclopentylacetamide] the IC50 was greater than 100 µM. With `O=C(Cn1nc(-c2ccc(Br)cc2)ccc1=O)NC1CCCCC1` [IIIc-42, 2-(3-(4-bromophenyl)-6-oxopyridazin-1(6H)-yl)-N-cyclohexylacetamide] the IC50 was greater than 100 µM. In the case of `O=C(Cn1nc(-c2ccc(F)cc2)ccc1=O)NCc1cccc(F)c1` [IIIc-43, N-(3-fluorobenzyl)-2-(3-(4-fluorophenyl)-6-oxopyridazin-1(6H)-yl)acetamide], the IC50 is reported as greater than 100 µM. `O=C(Cn1nc(-c2ccc(F)cc2)ccc1=O)Nc1ccccc1F` [IIIc-45, N-(2-fluorophenyl)-2-(3-(4-fluorophenyl)-6-oxopyridazin-1(6H)-yl)acetamide] showed an IC50 greater than 100 µM. `O=C(Cn1nc(-c2ccc(F)cc2)ccc1=O)N1CCCC1` [IIIc-46, 6-(4-fluorophenyl)-2-(2-oxo-2-(pyrrolidin-1-yl)ethyl)pyridazin-3(2H)-one] showed an IC50 greater than 100 µM. Work on `O=C(Cn1nc(-c2ccccc2)ccc1=O)N(C1=CCCCC1)C1CC1` [IIIc-59, N-(cyclohex-1-en-1-yl)-N-cyclopropyl-2-(6-oxo-3-phenylpyridazin-1(6H)-yl)acetamide] yielded an IC50 greater than 100 µM. Molecule `O=C(Cn1nc(-c2ccccc2)ccc1=O)NCCN1CCc2ccccc21` [IIIc-60, N-(2-(indolin-1-yl)ethyl)-2-(6-oxo-3-phenylpyridazin-1(6H)-yl)acetamide] has an IC50 greater than 100 µM. In the case of `CC(C)(CNC(=O)Cn1nc(-c2ccccc2)ccc1=O)c1ccccc1F` [IIIc-61, N-(2-(2-fluorophenyl)-2-methylpropyl)-2-(6-oxo-3-phenylpyridazin-1(6H)-yl)acetamide], the IC50 is reported as greater than 100 µM.

Source: patent US12415794B2 (Edgewise Therapeutics, Inc., priority 2018, dated 2025)
